Columns and labels:
[1] = test system: C2C12 muscle cells; assay: Extracellular acidification rate of TNF-α damaged muscle cells (cell energy metabolism analyzer); assay type: cell-based, mice; conditions: TNF-α 10 ng/ml, relative to control group (1-fold)
Source text: (§1) It is known that severe exercise or long-term exercise may lead to a large release of tumor necrosis factor alpha (TNF-α) and a decrease in mitochondria functions such as oxygen consumption rate (OCR, which represents the ability of aerobic metabolism of mitochondria) and extracellular acidification rate (ECAR, which represents the ability of glycolysis of mitochondria), so that the mitochondria cannot generate enough energy to supply cells in a subject, thereby resulting in the occurrence of fatigue in the subject. In this example, the C2C12 muscle cells with TNF-α induced damages were administered with the composition of the present invention, which comprises Cistanche tubulosa extract and ubiquinol, to understand the effect of the composition on anti-fatigue.
First, C2C12 cells (i.e., the muscle cells of mice; purchased from ATCC) were cultivated in an H-DMEM medium (purchased from Sigma company) containing 10% fetal bovine serum (purchased from BI company). After the C2C12 cells grew to the confluence rate of 80% (i.e., the mixed monolayer cells were accounted for 80% of the area), the cells were divided into seventeen groups (including a control group, a TNF-α group and fifteen experimental groups) and separately subjected to the following treatments: • 1. […]

[2] = test system: C2C12 muscle cells; assay: Oxygen consumption rate of TNF-α damaged muscle cells (Seahorse XF24); assay type: cell-based, mice; conditions: TNF-α 10 ng/ml, relative to control group (1-fold); for oxygen consumption of ATP production: FIG. 1A; for oxygen consumption of maximal respiration: FIG. 1B
Source text: as §1
First, C2C12 cells (i.e., the muscle cells of mice; purchased from ATCC) were cultivated in an H-DMEM medium (purchased from Sigma company) containing 10% fetal bovine serum (purchased from BI company). After the C2C12 cells grew to the confluence rate of 80% (i.e., the mixed monolayer cells were accounted for 80% of the area), the cells were divided into seventeen groups (including a control group, a TNF-α group and fifteen experimental groups) and separately subjected to the following treatments: • 1. Control group: cells were cultivated in an H-DMEM medium for 6 hours; and then, the medium was replaced with a differentiation medium (containing an H-DMEM medium and 2% horse serum), and the cells were continuously cultivated for another 4 days. • 2. TNF-α group: cells were cultivated in an H-DMEM medium for 6 hours; and then, the medium was replaced with a differentiation medium (containing an H-DMEM medium and 2% horse serum) being externally added with TNF-α (to a final concentration of 10 ng/ml), and the cells were continuously cultivated overnight; finally, the medium was replaced with a differentiation medium, and the cells were cultivated for another 4 days. • 3. […] In Table 1, the extract and ubiquinol were dissolved in a differentiation medium, and the unit “μg/ml” represents the weight of extract (as dry weight) and/or ubiquinol (as dry weight) in every milliliter of the differentiation medium.
The cells in the control group, TNF-α group and experimental groups 1 to 15 provided by Example (1-1) were respectively taken, and the oxygen consumption rates (including the oxygen consumption of ATP production and the oxygen consumption of maximal respiration) thereof were examined by a cell energy metabolism analyzer (Seahorse XF24). Then, the result of the control group was served as a basis (i.e., the oxygen consumption rate of the control group was set as 1-fold) to calculate the oxygen consumption rate of each group.

Compound | glycolysis level ([1]; FIG. 2A) | glycolytic reserve ([1]; FIG. 2B) | oxygen consumption of ATP production [2] | oxygen consumption of maximal respiration [2]
TNF-α | significantly increased | significantly decreased | significantly decreased | significantly decreased
COc1c(O)c(C)c(C/C=C(\C)CC/C=C(\C)CC/C=C(\C)CC/C=C(\C)CC/C=C(\C)CC/C=C(\C)CC/C=C(\C)CC/C=C(\C)CC/C=C(\C)CCC=C(C)C)c(O)c1OC [ubiquinol] | – | – | cannot alleviate | cannot alleviate
